According to article PMC8945123 (ACS Omega, 2022):
Where “and” joins values, the source holds several entries; their conditions need not be identical. Equal values may be shown once. Entries after “also recorded” stand apart in the source; their conditions may differ. Read-outs that look alike come from different tables or passages of the source.

Key:
[1] = PAMPA-BBB permeation assay; conditions: prediction of BBB penetration from Pe
animals = assay: Acute oral toxicity in animals; assay type: in vivo; conditions: doses from 50 to 2000 mg/kg body weight, eight animals per group
eeAChE = eeAChE (Electrophorus electricus, UniProt O42275); assay: In vitro eeAChE inhibition, Ellman's method; assay type: biochemical; conditions: for IC50: mean ± SEM (n = 3)
eqBChE = eqBChE (Equus caballus, UniProt P81908); assay: In vitro eqBChE inhibition, Ellman's method; assay type: biochemical
hMAO-A = target: T1, hMAO-A (Homo sapiens, UniProt P21397); assay: In vitro inhibition of recombinant human MAO-A, fluorometric; assay type: biochemical; conditions: for IC50 (μM) ± SEM hMAO-A: mean ± SEM (n = 3)
T1 sequence (P21397 1-527): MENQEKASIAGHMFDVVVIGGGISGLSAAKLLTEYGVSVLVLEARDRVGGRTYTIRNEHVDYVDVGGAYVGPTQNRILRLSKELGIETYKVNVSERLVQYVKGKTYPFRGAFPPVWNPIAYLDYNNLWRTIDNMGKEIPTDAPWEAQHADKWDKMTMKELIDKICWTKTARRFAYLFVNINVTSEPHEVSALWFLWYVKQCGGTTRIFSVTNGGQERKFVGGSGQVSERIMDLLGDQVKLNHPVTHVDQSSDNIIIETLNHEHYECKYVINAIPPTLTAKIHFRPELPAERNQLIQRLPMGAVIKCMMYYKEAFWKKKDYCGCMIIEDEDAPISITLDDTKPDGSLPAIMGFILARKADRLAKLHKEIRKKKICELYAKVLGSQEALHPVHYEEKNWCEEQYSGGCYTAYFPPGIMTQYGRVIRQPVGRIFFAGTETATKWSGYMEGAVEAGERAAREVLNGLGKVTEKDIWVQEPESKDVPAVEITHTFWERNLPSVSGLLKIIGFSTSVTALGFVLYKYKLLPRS

hMAO-B = target: T2, hMAO-B (Homo sapiens, UniProt P27338); assay: In vitro inhibition of recombinant human MAO-B, fluorometric; assay type: biochemical
T2 sequence (P27338 1-520): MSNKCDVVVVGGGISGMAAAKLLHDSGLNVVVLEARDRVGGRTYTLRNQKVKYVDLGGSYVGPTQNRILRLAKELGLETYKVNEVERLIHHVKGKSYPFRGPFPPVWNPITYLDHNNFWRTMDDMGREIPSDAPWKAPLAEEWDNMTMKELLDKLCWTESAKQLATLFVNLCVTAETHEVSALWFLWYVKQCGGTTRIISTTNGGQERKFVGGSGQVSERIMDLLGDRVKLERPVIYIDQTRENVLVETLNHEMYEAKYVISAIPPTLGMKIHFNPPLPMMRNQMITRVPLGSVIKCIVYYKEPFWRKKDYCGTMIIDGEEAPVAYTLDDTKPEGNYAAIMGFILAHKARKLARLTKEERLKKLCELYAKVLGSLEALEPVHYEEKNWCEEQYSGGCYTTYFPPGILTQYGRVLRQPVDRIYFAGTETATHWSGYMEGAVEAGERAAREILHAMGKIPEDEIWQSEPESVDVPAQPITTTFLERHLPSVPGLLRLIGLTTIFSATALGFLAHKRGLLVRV

[2] = Neurotoxicity MTT assay on neuroblastoma SH-SY5Y cells; assay type: cell-based; conditions: human
acetylcholinesterase = acetylcholinesterase (Electrophorus electricus, UniProt O42275); assay: Kinetic analysis of AChE inhibition; assay type: biochemical
acetylcholinesterase, sequence (O42275 24-633): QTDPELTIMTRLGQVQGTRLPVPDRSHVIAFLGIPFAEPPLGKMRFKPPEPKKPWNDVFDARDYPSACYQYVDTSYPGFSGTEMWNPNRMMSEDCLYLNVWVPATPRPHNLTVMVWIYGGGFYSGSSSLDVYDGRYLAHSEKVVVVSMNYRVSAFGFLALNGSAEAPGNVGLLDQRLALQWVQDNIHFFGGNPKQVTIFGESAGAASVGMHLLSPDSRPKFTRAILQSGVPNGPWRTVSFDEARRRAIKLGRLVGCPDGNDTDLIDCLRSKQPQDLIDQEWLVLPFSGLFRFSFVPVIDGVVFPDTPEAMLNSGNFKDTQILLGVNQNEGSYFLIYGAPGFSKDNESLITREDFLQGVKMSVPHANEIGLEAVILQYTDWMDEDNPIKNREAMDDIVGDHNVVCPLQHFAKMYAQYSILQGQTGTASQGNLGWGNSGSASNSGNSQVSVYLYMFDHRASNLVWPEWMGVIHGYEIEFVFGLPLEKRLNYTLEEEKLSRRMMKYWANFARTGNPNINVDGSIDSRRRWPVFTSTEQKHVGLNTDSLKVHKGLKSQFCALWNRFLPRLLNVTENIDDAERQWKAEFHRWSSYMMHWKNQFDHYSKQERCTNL

eeAChE, sequence (O42275 24-633): as above
eqBChE, sequence (P81908 whole entry): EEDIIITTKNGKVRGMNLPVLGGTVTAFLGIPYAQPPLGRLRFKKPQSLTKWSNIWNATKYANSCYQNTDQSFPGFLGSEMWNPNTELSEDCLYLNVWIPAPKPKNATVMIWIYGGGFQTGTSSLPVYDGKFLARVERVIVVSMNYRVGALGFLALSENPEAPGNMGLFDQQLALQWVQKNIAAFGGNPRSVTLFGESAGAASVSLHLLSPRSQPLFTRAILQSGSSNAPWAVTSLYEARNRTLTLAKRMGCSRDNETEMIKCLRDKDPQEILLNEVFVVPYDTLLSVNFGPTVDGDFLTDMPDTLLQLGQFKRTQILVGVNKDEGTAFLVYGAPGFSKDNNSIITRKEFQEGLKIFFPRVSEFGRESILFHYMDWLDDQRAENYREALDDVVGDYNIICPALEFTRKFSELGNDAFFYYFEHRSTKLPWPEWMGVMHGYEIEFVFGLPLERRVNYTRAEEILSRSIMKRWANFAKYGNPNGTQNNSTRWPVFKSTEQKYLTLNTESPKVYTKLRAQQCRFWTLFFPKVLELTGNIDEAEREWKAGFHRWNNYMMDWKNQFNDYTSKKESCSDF

| SMILES | prediction (PAMPA-BBB) (CNS+, CNS–) [1] | SI = selectivity index = IC50 of eqBChE/IC50 of eeAChE (eeAChE) | IC50 (eeAChE; IC50 (μM) ± SEM eeAChE) | IC50 (eqBChE) [nM] | IC50 (hMAO-A) [nM] | IC50 (hMAO-B) [nM] | SI = selectivity index = IC50 of hMAO-A/IC50 of hMAO-B (hMAO-B) | further results |
| --- | --- | --- | --- | --- | --- | --- | --- | --- |
| NCCc1ccc(O)c(O)c1 [dopamine] | CNS- (“CNS-” (prediction of low BBB permeation); Pe (10^–6 cm/s) < 1.78) | – | – | – | – | – | – | – |
| O=C1CCCC2=C1C(c1c[nH]c3ccccc13)n1c(s/c(=C\c3ccc(OCc4ccccc4)cc3)c1=O)=N2 (centres unmarked) [Compound 30] | – | 1.9 | 4.67 ± 0.29 µM | 8970 ± 770 | 480 ± 30 | 370 ± 10 | 1.3 | acute toxicity (survival, clinical signs) (animals): All animals were found alive |
| CC1(C)CC(=O)C2=C(C1)N=c1s/c(=C\c3ccc(OCCNCCc4c[nH]c5ccccc45)cc3)c(=O)n1C2c1c[nH]c2ccccc12 (centres unmarked) [Compound 35] | CNS+ (‘CNS+’ (prediction of high BBB permeation); Pe (10^–6 cm/s) > 4.39) | 15.0 | 0.04 µM and 0.042 µM | 630 ± 70 | 1930 ± 10 | 330 ± 10 | 5.8 | acute toxicity (survival, clinical signs) (animals): All animals were found alive; viability at 1 µM [2]: 98.9 ± 1.23%; viability at 10 µM [2]: 95.2 ± 1.54%; viability at 20 µM [2]: 94.9 ± 1.01%; viability at 40 µM [2]: 91.6 ± 1.59%; Ki (acetylcholinesterase): 12 nM; type of inhibition (acetylcholinesterase; Lineweaver–Burke double reciprocal plot): mixed inhibition mode; also recorded: mixed-type inhibition |
| Cc1nnc2n1-c1ccc(Cl)cc1C(c1ccccc1)=NC2 [alprazolam] | CNS+ (‘CNS+’ (prediction of high BBB permeation); Pe (10^–6 cm/s) > 4.39) | – | – | – | – | – | – | – |
| COc1ccc(C2CC(=O)C3=C(C2)N=c2s/c(=C\c4ccc(OCCNCCc5c[nH]c6ccccc56)cc4)c(=O)n2C3c2c[nH]c3ccccc23)cc1 (centres unmarked) [Compound 37] | CNS+ (‘CNS+’ (prediction of high BBB permeation); Pe (10^–6 cm/s) > 4.39) | 14.2 | 0.07 µM and 0.069 µM | 980 ± 110 | – | 140 ± 10 | – | acute toxicity (survival, clinical signs) (animals): All animals were found alive; viability at 1 µM [2]: 96.1 ± 0.98%; viability at 10 µM [2]: 92.1 ± 1.09%; viability at 20 µM [2]: 90.33 ± 0.83%; viability at 40 µM [2]: 88.2 ± 1.55%; IC50 (μM) ± SEM hMAO-A (hMAO-A): not able to show MAO-A inhibition activity at tested concentration |
| O=C1CC(c2ccccc2)CC2=C1C(c1c[nH]c3ccccc13)n1c(s/c(=C\c3ccc(OCCNCCc4c[nH]c5ccccc45)cc3)c1=O)=N2 (centres unmarked) [Compound 36] | – | 17.2 | 0.081 ± 0.03 µM | 1390 ± 60 | – | 100 ± 10 | – | IC50 (μM) ± SEM hMAO-A (hMAO-A): not able to show MAO-A inhibition activity at tested concentration |
| O=C1CC(c2ccccc2)CC2=C1C(c1c[nH]c3ccccc13)n1c(s/c(=C\c3c[nH]c4ccccc34)c1=O)=N2 (centres unmarked) [Compound 27] | – | 14.1 | – | 13700 ± 1210 | 9360 ± 1010 | 470 ± 10 | 19.9 | IC50 (eeAChE; read-out: IC50 (μM) ± SEM eeAChE): 0.97 ± 0.1 µM |
| CC1(C)CC(=O)C2=C(C1)N=c1s/c(=C\c3ccc(OCc4ccccc4)cc3)c(=O)n1C2c1c[nH]c2ccccc12 (centres unmarked) [Compound 31] | – | 3.7 | 3.71 ± 0.11 µM | 13900 ± 990 | 630 ± 40 | 380 ± 10 | 1.6 | – |
| COc1ccc(C2CC(=O)C3=C(C2)N=c2s/c(=C\c4ccc(OCc5ccccc5)cc4)c(=O)n2C3c2c[nH]c3ccccc23)cc1 (centres unmarked) [Compound 33] | – | 1.3 | 0.79 ± 0.09 µM | 1010 ± 60 | 48400 ± 2280 | 670 ± 10 | 72.2 | – |
| O=C1CC(c2ccccc2)CC2=C1C(c1c[nH]c3ccccc13)n1c(s/c(=C\c3ccc(OCc4ccccc4)cc3)c1=O)=N2 (centres unmarked) [Compound 32] | – | 1.9 | 0.86 ± 0.14 µM | 1700 ± 110 | 11200 ± 1300 | 810 ± 10 | 13.9 | – |
| CC(=O)[C@H]1CC[C@H]2[C@@H]3CCC4=CC(=O)CC[C@]4(C)[C@H]3CC[C@]12C [progesterone] | CNS+ (‘CNS+’ (prediction of high BBB permeation); Pe (10^–6 cm/s) > 4.39) | – | – | – | – | – | – | – |
| CC1(C)CC(=O)C2=C(C1)N=c1s/c(=C\c3c[nH]c4ccccc34)c(=O)n1C2c1c[nH]c2ccccc12 (centres unmarked) [Compound 26] | – | 3.1 | 6.21 ± 0.16 µM | 19300 ± 1140 | 570 ± 80 | 240 ± 10 | 2.4 | – |
| O=C1CCCC2=C1C(c1c[nH]c3ccccc13)n1c(s/c(=C\c3ccc(OCCNCCc4c[nH]c5ccccc45)cc3)c1=O)=N2 (centres unmarked) [Compound 34] | – | 3.7 | 0.12 ± 0.01 µM | 440 ± 10 | 1500 ± 10 | 280 ± 10 | 5.3 | – |
| CCn1cc(C(=O)O)c(=O)c2cc(F)c(N3CCNC(C)C3)c(F)c21 (centres unmarked) [lomefloxacin] | CNS- (“CNS-” (prediction of low BBB permeation); Pe (10^–6 cm/s) < 1.78) | – | – | – | – | – | – | – |
| COc1ccc(C2CC(=O)C3=C(C2)N=c2s/c(=C\c4c[nH]c5ccccc45)c(=O)n2C3c2c[nH]c3ccccc23)cc1 (centres unmarked) [Compound 28] | – | 11.8 | 0.89 ± 0.1 µM | 10500 ± 1090 | 36900 ± 1220 | 310 ± 10 | 119.2 | – |
